Patent US20250243160A1, “INDOLE DERIVATIVES FOR TARGETING AUTOPHAGY” (Automera PTE. LTD, priority 2024, published 2025)

What was measured:
Recombinant p62 protein = Recombinant p62 protein (Homo sapiens, UniProt Q13501); test: Surface plasmon resonance (SPR) compound binding to p62; conditions: 15° C
LC3 protein = test: LC3 lipidation (LC3-II/LC3-I) assay by Western blot in HeLa cells; format: cell-based; conditions: 24 hours treatment, relative to vehicle control (DMSO)
Method: HeLa cells were seeded in 6-well plates (700,000 cells) and allowed to adhere overnight. Media was replaced one hour before administering either vehicle (DMSO) or test compounds. After 24 hours of treatment, the media was discarded, and cells were rinsed once with ice-cold 1×PBS before detached from plates with ice-cold RIPA Lysis and Extraction Buffer (Thermo Fisher Scientific) which was supplemented with protease and phosphatase inhibitors. The resulting cell suspensions were transferred to pre-chilled microcentrifuge tubes, incubated on ice for 20 min with intermittent mixing and then centrifuged at 12,000 rpm for 20 min at 4° C. The supernatants were then aspirated slowly and transferred into new tubes kept on ice. The protein concentration in the samples was determined using BCA kit (Thermo Fisher Scientific) as per manufacturer's instructions.
For the p62 oligomerization and LC3 lipidation assays, cell lysates were prepared using RIPA buffer supplemented with 2% SDS and benzonase (Sigma). The lysates were then combined with 4× Laemmli protein sample buffer (Bio-Rad), heated at 70° C. for 10 min and subjected to a brief centrifugation of 10-15 seconds.
For p62 oligomerization and LC3 lipidation assays, lysates containing 30 μg of protein and for BRD4 and FKBP12(F36V) degradation assays, lysates containing 20 μg of protein, were loaded slowly into the wells of 4-20% gradient Tris-glycine gels (Bio-Rad). The gels were run at 100V until completion and transferred onto PVDF membranes. Membranes were blocked using 5% milk in TBS-Tween (0.1%) buffer at room temperature for 1 hour. The membranes were incubated with primary antibody in 5% milk-TBST with shaking, overnight at 4° C. The primary antibodies used were: p62 (Novus Biologicals 2C11, H00008878-MO1), LC3A/B (Cell Signalling Technology D3U4C, 12741S), FKBP12 (Abcam ab24373), BRD4 (Cell Signalling Technology E2A7X, 13440S), GAPDH (Cell Signalling Technology D4C6R, 97166S), and β-Actin (Proteintech 66009-1-Ig). Following primary antibody incubation, membranes were washed thrice with TBST 10 min before and after incubation with secondary-HRP conjugated antibody in 5% milk-TBST for 1 hour at room temperature. The secondary antibodies used were: Anti-Mouse IgG HRP Conjugate (Promega W4021B) and Anti-Rabbit IgG HRP Conjugate (Promega W4011). For the p62 oligomerization assay, the total protein levels were assessed using Ponceau staining (Thermo Fisher Scientific) of PVDF membrane as per recommendation by manufacturer's guidelines.
Imaging was acquired using SuperSignal™ West Pico PLUS Chemiluminescent Substrate (Thermo Fisher Scientific) with iBright Invitrogen FL100 imaging system. Band signal intensity, reflective of protein concentrations, were quantified using Invitrogen™ iBright™ Analysis and Image J software.
HeLa cells were treated with compounds for 24 hours to evaluate the effect of these compounds on LC3-II/LC3-I levels, a measure of autophagy activation. The changes in levels of LC3-I, LC3-II and […] (loading control) were assessed by Western blotting, as described in experimental procedures. The fold increase of LC3-II/LC3-I levels induced by compound treatment relative to vehicle control (DMSO) was determined and summarized in Table 9. Specifically, FIGS. 3A-C show Western blot images and their corresponding quantification showing the lipidation levels of LC3 protein (LC3-II/LC3-I) by 24 hours compound treatments at listed concentrations, relative to vehicle control (DMSO) in HeLa cells.

Recombinant p62 protein, sequence (Q13501 whole entry, species assumed): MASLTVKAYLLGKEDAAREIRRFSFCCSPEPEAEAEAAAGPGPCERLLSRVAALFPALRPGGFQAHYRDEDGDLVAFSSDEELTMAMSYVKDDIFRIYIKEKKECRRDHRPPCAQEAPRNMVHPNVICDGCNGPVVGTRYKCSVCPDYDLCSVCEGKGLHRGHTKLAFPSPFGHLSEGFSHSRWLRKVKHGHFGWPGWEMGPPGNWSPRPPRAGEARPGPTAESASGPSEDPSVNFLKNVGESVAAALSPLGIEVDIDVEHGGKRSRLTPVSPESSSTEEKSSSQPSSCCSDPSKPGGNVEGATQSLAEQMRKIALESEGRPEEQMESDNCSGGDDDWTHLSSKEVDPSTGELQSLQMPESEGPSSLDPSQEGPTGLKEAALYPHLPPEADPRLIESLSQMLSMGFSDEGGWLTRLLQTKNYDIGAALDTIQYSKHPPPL

receptor occupancy at 100 µM (Recombinant p62 protein) [%]	SMILES	LC3 lipidation (fold increase of LC3-II/LC3-I levels) (LC3 protein)
> 70	OCCNCc1cc(F)cc2c1ccn2Cc1ccc(F)cc1 [Compound 44]	++ (>2-fold change in LC3-II/LC3-I relative to DMSO control)
30 to 70	OCCNCc1cccc2c1ccn2Cc1ccccc1 [Compound 1, 2-(((1-benzyl-1H-indol-4-yl)methyl)amino)ethan-1-ol]	+ (<2-fold change in LC3-II/LC3-I relative to DMSO control)
30 to 70	OCCNCc1cc(F)cc2c1ccn2Cc1ccc(Cl)cc1 [Compound 45, 2-(((1-(4-chlorobenzyl)-6-fluoro-1H-indol-4-yl)methyl)amino)ethan-1-ol]	++ (>2-fold change in LC3-II/LC3-I relative to DMSO control)
